From BindingDB's records for doi:10.7270/Q2V40SP7 (The Scripps Research Institute Molecular Screening Center, 2011)

Biological target: T1, Peroxisome proliferator-activated receptor gamma (Homo sapiens, UniProt P37231)
T1 sequence (P37231 whole entry): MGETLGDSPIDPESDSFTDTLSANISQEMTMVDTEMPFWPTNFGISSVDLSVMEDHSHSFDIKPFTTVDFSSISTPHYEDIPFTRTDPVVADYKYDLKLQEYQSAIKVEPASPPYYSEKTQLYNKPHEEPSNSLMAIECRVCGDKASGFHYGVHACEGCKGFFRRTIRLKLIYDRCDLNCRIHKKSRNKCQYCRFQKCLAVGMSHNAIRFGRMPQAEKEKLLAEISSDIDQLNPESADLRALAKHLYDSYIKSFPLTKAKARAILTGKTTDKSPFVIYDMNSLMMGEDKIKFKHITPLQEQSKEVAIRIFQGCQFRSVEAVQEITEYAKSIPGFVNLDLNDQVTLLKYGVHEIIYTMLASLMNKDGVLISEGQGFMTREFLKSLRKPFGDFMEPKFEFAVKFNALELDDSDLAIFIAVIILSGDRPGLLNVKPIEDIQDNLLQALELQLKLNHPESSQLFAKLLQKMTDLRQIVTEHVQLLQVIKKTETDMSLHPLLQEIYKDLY
Assay: PPARg ligand-binding domain binders, dose response, PPARg partial agonist project, biochemical, TR-FRET, LanthaScreen (AID 504446)

Compound	IC50 [µM]
Cc1ccc2nc(N3C(=O)C(=O)C(C(=O)c4ccco4)C3c3ccc(C)o3)sc2c1 (centres undefined) [3-[2-furanyl(oxo)methyl]-4-hydroxy-1-(6-methyl-1,3-benzothiazol-2-yl)-2-(5-methyl-2-furanyl)-2H-pyrrol-5-one;oxalic acid]	14
CCOc1ccc2nc(N3C(=O)C(=O)C(C(=O)c4ccco4)C3c3ccco3)sc2c1 (centres undefined) [1-(6-ethoxy-1,3-benzothiazol-2-yl)-2-(2-furanyl)-3-[2-furanyl(oxo)methyl]-4-hydroxy-2H-pyrrol-5-one]	8.2
COc1ccc2nc(N3C(=O)C(=O)C(C(=O)c4ccco4)C3c3ccc(C)o3)sc2c1 (centres undefined)	1.2
Cc1ccc2nc(N3C(=O)C(=O)C(C(=O)c4ccc(C)o4)C3c3ccco3)sc2c1 (centres undefined)	2.6
